Columns and labels:
Experiment in all cases: Synergistic antimicrobial activity as MIC, 96-well microplate, optical density at 620 nm
Format in all cases: cell-based
Settings in all cases: for microbial growth percentage: 0 A
[1] = test system: Aspergillus niger ATCC 6275
Excerpt: (§1) FIC Index=(MIC of A with B/MIC of A)+(MIC of B with A/MIC of B [Math. 1]
(§2) with: • MIC of A with B: minimum concentration of product A in the combination A+B which makes it possible to obtain an inhibitory effect; • MIC of B with A: minimum concentration of product B in the combination A+B which makes it possible to obtain an inhibitory effect; • MIC of A: minimum inhibitory concentration of product A alone; • MIC of B: minimum inhibitory concentration of product B alone. This formula was described for the first time in the article by F. C. Kull, P. C. Eisman, H. D. Sylwestrowka, and R. L. Mayer, Applied Microbiology 9:538-541, 1961.
The microbial strain Aspergillus niger ATCC 6275, and a double-concentration Sabouraud broth liquid culture medium supplemented with polyoxyethylenated (20 OE) sorbitan monopalmitate (Tween 40 from Croda) and Phytagel© BioReagent were used (i.e. a mixture of 5 g of Phytagel+0.6 g of Tween 40+60 g of Sabouraud broth).
(§3) A 96-well microplate at an incubation temperature of 32.5° C. is used.
(§4) The incubation time of the microplate is: • from 24 to 30 h under aerobic conditions for microbial Aspergillus niger ATCC 6275; • from 18 to 24 h under aerobic conditions for Candida albicans ATCC 10231, Pseudomonas aeruginosa ATCC 9027 and Staphylococcus aureus ATCC 6538; • from 24 to 48 h under aerobic conditions for Enterococcus faecalis ATCC 33186.
(§5) For each compound: A=4-(3-ethoxy-4-hydroxyphenyl) butan-2-one compound B=alcohol compound A 10% (weight/volume) stock solution was prepared by mixing 1 g of compound in 9 ml of aqueous 1% agar solution. Successive dilutions were made with the 1% agar solution.
(§6) 50 μl of each of the daughter solutions obtained containing compound A or B are added to the microplate wells. 100 μl of Sabouraud liquid nutrient broth inoculated at double concentration with the Aspergillus niger strain and 50 μl of aqueous 1% agar solution are also added thereto.
(§7) 50 μl of each of the daughter solutions obtained containing compound A and 50 μl of each of the daughter solutions obtained containing compound B are added to the microplate wells. 100 μl of Sabouraud liquid nutrient broth inoculated at double concentration with the strain Aspergillus niger are also added thereto.
(§8) A positive microbial growth control was also prepared. The positive microbial growth control corresponds to a mixture of 100 μl of aqueous 1% agar solution with 100 μl of Sabouraud liquid nutrient broth inoculated at double concentration with the strain Aspergillus niger in the absence of compounds A and B.
(§9) An absorbance control was performed in parallel on compounds A and B alone. This control corresponds to 100 μl of double concentration sterile Sabouraud liquid nutrient broth+100 μl of double concentration compound A or B.
(§10) In the three cases (absorbance control, growth control and test), the final volume present in each of the microplate wells is 200 μl.
In the two cases (test and control), the inoculum represents the concentration of the Aspergillus niger strain present in the final volume of the wells (200 μl) and is between 2 and 6×10^5 cfu/ml of Aspergillus niger.

[2] = test system: Staphylococcus aureus ATCC 6538
Excerpt: as §1, §2
The microbial strain Staphylococcus aureus ATCC 6538 and a double-concentration nutrient broth liquid culture medium were used.
as §3, §4, §5, §6, §7, §8, §9, §10
(§11) The test as described above (tests, absorbance control and growth control) was performed again to test the combination A+B on the following strains Enterococcus faecalis, Staphylococcus aureus, Pseudomonas aeruginosa, Candida albicans, where appropriate.

[3] = test system: Candida albicans ATCC 10231
Excerpt: with: • MIC of A with B: minimum concentration of product A in the combination A+B which makes it possible to obtain an inhibitory effect; • MIC of B with A: minimum concentration of product B in the combination A+B which makes it possible to obtain an inhibitory effect; • MIC of A: minimum inhibitory concentration of product A alone; • MIC of B: minimum inhibitory concentration of product B alone. This formula was described for the first time in the article by F. C. Kull, […], and R. L. Mayer, Applied Microbiology 9:538-541, 1961. […] When the FIC index value is less than or equal to 1, it is considered that the combination of test compounds has a synergistic effect. […] A 96-well microplate at an incubation temperature of 32.5° C. is used. […] For each compound: […] 50 μl of each of the daughter solutions obtained containing compound A and 50 μl of each of the daughter solutions obtained containing compound B are added to the microplate wells. 100 μl of Sabouraud liquid nutrient broth inoculated at double concentration with the strain Aspergillus niger are also added thereto. A positive microbial growth control was also prepared. […] An absorbance control was performed in parallel on compounds A and B alone. This control corresponds to 100 μl of double concentration sterile Sabouraud liquid nutrient broth+100 μl of double concentration compound A or B. […] The test as described above (tests, absorbance control and growth control) was performed again to test the combination A+B on the following strains Enterococcus faecalis, Staphylococcus aureus, Pseudomonas aeruginosa, Candida albicans, where appropriate.

[4] = test system: Pseudomonas aeruginosa ATCC 9027
Excerpt: with: • MIC of A with B: minimum concentration of product A in the combination A+B which makes it possible to obtain an inhibitory effect; • MIC of B with A: minimum concentration of product B in the combination A+B which makes it possible to obtain an inhibitory effect; • MIC of A: minimum inhibitory concentration of product A alone; • MIC of B: minimum inhibitory concentration of product B alone. This formula was described for the first time in the article by F. C. Kull, […], and R. L. Mayer, Applied Microbiology 9:538-541, 1961. […] When the FIC index value is less than or equal to 1, it is considered that the combination of test compounds has a synergistic effect. The microbial strain Pseudomonas aeruginosa ATCC 9027 and a double-concentration nutrient broth liquid culture medium were used. A 96-well microplate at an incubation temperature of 32.5° C. is used. […] For each compound: […] 50 μl of each of the daughter solutions obtained containing compound A and 50 μl of each of the daughter solutions obtained containing compound B are added to the microplate wells. 100 μl of Sabouraud liquid nutrient broth inoculated at double concentration with the strain Aspergillus niger are also added thereto. A positive microbial growth control was also prepared. […] An absorbance control was performed in parallel on compounds A and B alone. This control corresponds to 100 μl of double concentration sterile Sabouraud liquid nutrient broth+100 μl of double concentration compound A or B. […] The test as described above (tests, absorbance control and growth control) was performed again to test the combination A+B on the following strains Enterococcus faecalis, Staphylococcus aureus, Pseudomonas aeruginosa, Candida albicans, where appropriate.

[5] = test system: Enterococcus faecalis ATCC 33186
Excerpt: as §1, §2
The microbial strain Enterococcus faecalis ATCC 33186 and a double-concentration BHI (Brain Heart Infusion) broth liquid culture medium were used.
as §3, §4, §5, §6, §7, §8, §9, §10, §11

[6] = Aspergillus niger, growth <= 25%
[7] = Staphylococcus aureus, growth <= 25%
[8] = Enterococcus faecalis, growth <= 25%

With `CC(=O)c1ccc(O)cc1` [B1, 4-hydroxyacetophenone] the microbial growth percentage ([1]; 0.0625 B1 weight %) was 86%, the microbial growth percentage ([1]; 0.125 B1 weight %) was 72% and the microbial growth percentage ([1]; 0.25 B1 weight %) was 79%. The microbial growth percentage ([1]; 0.5 B1 weight %) was 6% and the “% MIC of B1 alone” value [1, 6] was 0.5%.

For `Oc1cc(Cl)ccc1Oc1ccc(Cl)cc1Cl` [B2, 5-chloro-2-(2,4-dichlorophenoxy)phenol], the microbial growth percentage ([2]; 0.125 B2 weight %) was 46%, the microbial growth percentage ([2]; 0.25 B2 weight %) was 14% and the “% MIC of B2 alone” value [2, 7] was 0.25%.

`Cc1cc(O)cc(C)c1Cl` [B5, 4-chloro-3,5-dimethylphenol] showed a microbial growth percentage ([1]; 0.0625 B5 weight %) of 99%, a microbial growth percentage ([1]; 0.125 B5 weight %) of 103% and a microbial growth percentage ([1]; 0.25 B5 weight %) of 31%. For the same compound, the microbial growth percentage ([1]; 0.5 B5 weight %) was −6%, the “% MIC of B5 alone” value [1, 6] was 0.5% and the microbial growth percentage ([3]; 0.0625 B5 weight %) was 73%. For the same compound, the microbial growth percentage ([3]; 0.125 B5 weight %) was 28%, the microbial growth percentage ([3]; 0.25 B5 weight %) was 1% and the “% MIC of B5 alone” value ([3]; Candida albicans, growth <= 25%) was 0.25%.

`CCCCCCCC(=O)OCC(O)CO` (centres unmarked) [B6, glyceryl caprylate] was tested, and the microbial growth percentage ([2]; 0.0625 B6 weight %) was 83%, the microbial growth percentage ([2]; 0.125 B6 weight %) was 87% and the microbial growth percentage ([2]; 0.25 B6 weight %) was 53%. For the same compound, the microbial growth percentage ([2]; 0.5 B6 weight %) was 48%, the microbial growth percentage ([2]; 1 B6 weight %) was 9% and the “% MIC of B6 alone” value [2, 7] was 1%. For the same compound, the microbial growth percentage ([4]; 0.1 B6 weight %) was 123%, the microbial growth percentage ([4]; 0.2 B6 weight %) was 109% and the microbial growth percentage ([4]; 0.4 B6 weight %) was −40%. For the same compound, the “% MIC of B6 alone” value ([4]; Pseudomonas aeruginosa, growth <= 25%) was 0.4%, the microbial growth percentage ([5]; 0.125 B6 weight %) was 57% and the microbial growth percentage ([5]; 0.25 B6 weight %) was 22%. The microbial growth percentage ([5]; 0.5 B6 weight %) was 8%, the microbial growth percentage ([5]; 0.625 B6 weight %) was 38% and the “% MIC of B6 alone” value [5, 8] was 0.5%.

sorbitan caprylate [B3] showed a microbial growth percentage ([1]; 0.025 B3 weight %) of 50%, a microbial growth percentage ([1]; 0.05 B3 weight %) of 30% and a microbial growth percentage ([1]; 0.1 B3 weight %) of −2%. For the same compound, the “% MIC of B3 alone” value [1, 6] was 0.1%, the microbial growth percentage ([5]; 0.125 B3 weight %) was 134% and the microbial growth percentage ([5]; 0.25 B3 weight %) was 61%. The microbial growth percentage ([5]; 0.5 B3 weight %) was 62%, the microbial growth percentage ([5]; 1 B3 weight %) was 2% and the “% MIC of B3 alone” value [5, 8] was 1%.
